Experiments:
Format in all cases: cell-based, mouse
Settings in all cases: 1 week-old, after 1 week of stress treatment, SLO 10 μg/mL, ATP 2.4 mM, Ca 2 mM CaCl2
[1] = tested on: Bone Marrow somatic cells; assay: Percent of cells demonstrating pluripotent phenotype after stress treatment, bone marrow cells
Description: (§1) Stress alteration of mature somatic cells procured from various adult tissues. To examine whether ACCs could be generated not only mature lymphocytes but also other types of somatic cells, brain, skin, muscle, fat, bone marrow, lung and liver were harvested from Oct4-GFP (GOF) mice^8. Cells were isolated from the tissue samples, dissociated into single cells, and treated with different physical and or chemical stress conditions. The efficiency of the process to alter the cells differed as a function of both the source of cells and the stress condition(s) to which the cells were exposed (FIG. 7A). The ability of stress to alter mature cells to express Oct4, differed depending on the derivation of cells, but stress was able to alter cells to express Oct4 to some degree in mature cells derived from all three germ layers (FIG. 7A). ACC colonies derived from any mature tissue expressed pluripotent markers, E-cadherin, Nanog, PCAM-1 and AP (data not shown), and ES specific marker genes (FIG. 7B). Significant physical and chemical stresses altered mature somatic cells to revert to a stem cell state, despite of the source of tissues and derivation of the germ layers.
(§2) Exposure to external stimuli—stress treatment. […]
(§3) Fluorescence-Activated Cell Sorting and Flow Cytometry. […] Cells were sorted on a BD FACSAria SORP and analyzed on a BD LSRII with BD FACSDiva Software (BD Biosciences).

Brain somatic cells = assay: Percent of cells demonstrating pluripotent phenotype after stress treatment, brain cells
Lung somatic cells = assay: Percent of cells demonstrating pluripotent phenotype after stress treatment, lung cells
Description: as §1, §2, §3

Muscle somatic cells = assay: Percent of cells demonstrating pluripotent phenotype after stress treatment, muscle cells
Description: as §1, §2, §3

Fat somatic cells = assay: Percent of cells demonstrating pluripotent phenotype after stress treatment, fat cells
Description: as §1, §2, §3

Fibroblast = assay: Percent of cells demonstrating pluripotent phenotype after stress treatment, fibroblasts
Description: as §1, §2, §3

In the case of streptolysin O [SLO], the “Percent of cells demonstrating pluripotent phenotype” value (from here on “Percent”) [1] is reported as 13.2%, the “Percent” value (Brain somatic cells) is reported as 10.3% and the “Percent” value (Lung somatic cells) is reported as 18.4%. For the same substance, the “Percent” value (Muscle somatic cells) was 20.5%, the “Percent” value (Fat somatic cells) was 32.8% and the “Percent” value (Fibroblast) was 15.2%.
